Measurements as given in patent US12077503B2, “Substituted cyclic amides and their use as herbicides” (FMC CORPORATION, priority 2015, dated 2024).

What was measured:
Type in all cases: in vivo
[1] = system: barnyardgrass (Echinochloa crus-galli); assay: Test G Pre-Emergence Protocol; conditions: Echinochloa crus-galli, pre-emergence, 312 h, evaluated after 13 days
Procedure, shortened: (§1)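 Pre-emergence spray, 15.625/62.5/250 g/ha, vehicle acetone:water 50:50 + 0.5% Tween 20, applied 1 d after sowing. Glasshouse 24/16° C, 14 h light, 65% RH, watered twice daily. Visual damage rating at 13 d, 0–100 scale.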

[2] = system: corn (Zea mays); assay: Test G Pre-Emergence Protocol; conditions: Zea mays, pre-emergence, 312 h, evaluated after 13 days
Procedure, shortened: as §1

[3] = system: giant foxtail (Setaria faberi); assay: Test G Pre-Emergence Protocol; conditions: Setaria faberi, pre-emergence, 312 h, evaluated after 13 days
Procedure, shortened: as §1

[4] = system: ivy-leaved morning glory (Ipomoea hederacea); assay: Test G Pre-Emergence Protocol; conditions: Ipomoea, pre-emergence, 312 h, evaluated after 13 days
Procedure, shortened: as §1

[5] = system: redroot pigweed (Amaranthus retroflexus); assay: Test G Pre-Emergence Protocol; conditions: Amaranthus retroflexus, pre-emergence, 312 h, evaluated after 13 days
Procedure, shortened: as §1

[6] = system: velvetleaf (Abutilon theophrasti); assay: Test G Pre-Emergence Protocol; conditions: Abutilon theophrasti, pre-emergence, 312 h, evaluated after 13 days
Procedure, shortened: as §1

[7] = system: barnyardgrass (Echinochloa crus-galli); assay: Test G Post-Emergence Protocol; conditions: Echinochloa crus-galli, post-emergence, 312 h
Procedure, shortened: (§2)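 Pot-grown seedlings, 8 days old, raised in a glasshouse at 24/16 °C day/night with 14 h light and 65% humidity, were sprayed post-emergence with test compound in acetone/water (50:50) plus 0.5% Tween 20 at 15.625, 62.5 or 250 g/ha. Damage was scored visually 13 days later on a 0–100 scale (100 = total damage).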

[8] = system: corn (Zea mays); assay: Test G Post-Emergence Protocol; conditions: Zea mays, post-emergence, 312 h
Procedure, shortened: as §2

[9] = system: giant foxtail (Setaria faberi); assay: Test G Post-Emergence Protocol; conditions: Setaria faberi, post-emergence, 312 h
Procedure, shortened: as §2

[10] = system: ivy-leaved morning glory (Ipomoea hederacea); assay: Test G Post-Emergence Protocol; conditions: Ipomoea, post-emergence, 312 h
Procedure, shortened: as §2

[11] = system: redroot pigweed (Amaranthus retroflexus); assay: Test G Post-Emergence Protocol; conditions: Amaranthus retroflexus, post-emergence, 312 h
Procedure, shortened: as §2

[12] = system: velvetleaf (Abutilon theophrasti); assay: Test G Post-Emergence Protocol; conditions: Abutilon theophrasti, post-emergence, 312 h
Procedure, shortened: as §2

Cc1cc(C(F)(F)F)ccc1[C@@H]1CN(C)C(=O)[C@H]1C(=O)Nc1ccccc1F (racemic) [Compound 1415]
60%: pest or weed control at 250 g/ha ([7]; 250 g ai/ha, evaluated after 13 days, read-out: damage to plant, Barnyardgrass (100=total damage to plant; 0=no damage to plant)) | pest or weed control at 62.5 g/ha ([9]; 62.5 g ai/ha, evaluated after 13 days, read-out: Foxtail, Giant damage rating (100=total damage to plant; 0=no damage to plant))
30%: pest or weed control at 62.5 g/ha ([7]; 62.5 g ai/ha, evaluated after 13 days, read-out: Barnyardgrass damage rating (100=total damage to plant; 0=no damage to plant)) | pest or weed control at 250 g/ha ([11]; 250 g ai/ha, evaluated after 13 days, read-out: damage to plant, Pigweed, Redroot (100=total damage to plant; 0=no damage to plant))
20%: pest or weed control at 15.625 g/ha ([7]; 15.625 g ai/ha, evaluated after 13 days (100=total damage to plant; 0=no damage to plant), read-out: Barnyardgrass damage rating) | plant injury at 15.625 g/ha ([8]; 15.625 g ai/ha, evaluated after 13 days (100=total damage to plant; 0=no damage to plant), read-out: Corn damage rating) | plant injury at 250 g/ha ([8]; 250 g ai/ha, evaluated after 13 days, read-out: damage to plant, Corn (100=total damage to plant; 0=no damage to plant)) | pest or weed control at 15.625 g/ha ([9]; 15.625 g ai/ha, evaluated after 13 days (100=total damage to plant; 0=no damage to plant), read-out: Foxtail, Giant damage rating) | pest or weed control at 250 g/ha ([10]; 250 g ai/ha, evaluated after 13 days, read-out: damage to plant, Morningglory, Ivy-leaved (100=total damage to plant; 0=no damage to plant)) | pest or weed control at 250 g/ha ([12]; 250 g ai/ha, evaluated after 13 days, read-out: damage to plant, Velvetleaf (100=total damage to plant; 0=no damage to plant))
80%: pest or weed control at 250 g/ha ([3]; 250 g ai/ha, read-out: Foxtail, Giant damage rating (100=total damage to plant; 0=no damage to plant))
50%: pest or weed control at 62.5 g/ha ([1]; 62.5 g ai/ha, 100=total damage to plant, 0=no damage to plant, read-out: plant damage rating, Barnyardgrass)
10%: pest or weed control at 15.625 g/ha ([1]; 15.625 g ai/ha, read-out: Barnyard grass damage rating (100=total damage to plant; 0=no damage to plant)) | pest or weed control at 15.625 g/ha ([3]; 15.625 g ai/ha, read-out: Foxtail, Giant damage rating (100=total damage to plant; 0=no damage to plant)) | pest or weed control at 15.625 g/ha ([5]; 15.625 g ai/ha, read-out: Pigweed, Redroot damage rating (100=total damage to plant; 0=no damage to plant)) | pest or weed control at 250 g/ha ([5]; 250 g ai/ha, read-out: Pigweed, Redroot damage rating (100=total damage to plant; 0=no damage to plant)) | plant injury at 62.5 g/ha ([8]; 62.5 g ai/ha, evaluated after 13 days, read-out: Corn damage rating (100=total damage to plant; 0=no damage to plant)) | pest or weed control at 15.625 g/ha ([10]; 15.625 g ai/ha, evaluated after 13 days (100=total damage to plant; 0=no damage to plant), read-out: Morningglory, Ivy-leaved damage rating) | pest or weed control at 62.5 g/ha ([10]; 62.5 g ai/ha, evaluated after 13 days, read-out: Morningglory, Ivy-leaved damage rating (100=total damage to plant; 0=no damage to plant)) | pest or weed control at 15.625 g/ha ([11]; 15.625 g ai/ha, evaluated after 13 days (100=total damage to plant; 0=no damage to plant), read-out: Pigweed, Redroot damage rating) | pest or weed control at 62.5 g/ha ([11]; 62.5 g ai/ha, evaluated after 13 days, read-out: Pigweed, Redroot damage rating (100=total damage to plant; 0=no damage to plant)) | pest or weed control at 15.625 g/ha ([12]; 15.625 g ai/ha, evaluated after 13 days (100=total damage to plant; 0=no damage to plant), read-out: Velvetleaf damage rating)
70%: pest or weed control at 250 g/ha ([1]; 250 g ai/ha, read-out: Barnyardgrass damage rating (100=total damage to plant; 0=no damage to plant)) | pest or weed control at 62.5 g/ha ([3]; 62.5 g ai/ha, 100=total damage to plant, 0=no damage to plant, read-out: plant damage rating, Foxtail, Giant) | pest or weed control at 250 g/ha ([9]; 250 g ai/ha, evaluated after 13 days, read-out: damage to plant, Foxtail, Giant (100=total damage to plant; 0=no damage to plant))
0%: plant injury at 15.625 g/ha ([2]; 15.625 g ai/ha, read-out: Corn damage rating (100=total damage to plant; 0=no damage to plant)) | plant injury at 62.5 g/ha ([2]; 62.5 g ai/ha, 100=total damage to plant, 0=no damage to plant, read-out: plant damage rating, Corn) | plant injury at 250 g/ha ([2]; 250 g ai/ha, read-out: Corn damage rating (100=total damage to plant; 0=no damage to plant)) | pest or weed control at 15.625 g/ha ([4]; 15.625 g ai/ha, read-out: Morning-glory, Ivy-leaved damage rating (100=total damage to plant; 0=no damage to plant)) | pest or weed control at 62.5 g/ha ([4]; 62.5 g ai/ha, 100=total damage to plant, 0=no damage to plant, read-out: plant damage rating, Morningglory, Ivy-leaved) | pest or weed control at 250 g/ha ([4]; 250 g ai/ha, read-out: Morningglory, Ivy-leaved damage rating (100=total damage to plant; 0=no damage to plant)) | pest or weed control at 62.5 g/ha ([5]; 62.5 g ai/ha, 100=total damage to plant, 0=no damage to plant, read-out: plant damage rating, Pigweed, Redroot) | pest or weed control at 15.625 g/ha ([6]; 15.625 g ai/ha, read-out: Velvetleaf damage rating (100=total damage to plant; 0=no damage to plant)) | pest or weed control at 62.5 g/ha ([6]; 62.5 g ai/ha, 100=total damage to plant, 0=no damage to plant, read-out: plant damage rating, Velvetleaf) | pest or weed control at 250 g/ha ([6]; 250 g ai/ha, read-out: Velvetleaf damage rating (100=total damage to plant; 0=no damage to plant)) | pest or weed control at 62.5 g/ha ([12]; 62.5 g ai/ha, evaluated after 13 days, read-out: Velvetleaf damage rating (100=total damage to plant; 0=no damage to plant))
